Legend:
PI3K α = PI3K α (Homo sapiens (Human), UniProt P42336); assay: PI3-Kinase Promega ADP-Glo Max assay; type: biochemical
Method: (§1) Promega ADP-Glo Max assay kit (Cat. No. V7002) was utilized to determine IC50 values for α, β, δ and γ isoforms of human Class I PI3 kinases (Millipore). […] Reactions were incubated at room temperature for 2 hours followed by addition of 25 uL of stop solution. After a 40-minute incubation at room temperature, 50 uL of Promega detection mix was added followed by incubation for 1 hour at room temperature. Plates were then read on Envision plate reader in lunimescence mode. Data was converted to % inhibition using the following equation below:
(§2) [formula] where S is the sample luminescence, Pos is a positive control without added PI3K, Neg is the negative control without added compound. Data was then plotted as % inhibition vs compound concentration.

PI3K β = PI3K β (Homo sapiens (Human), UniProt P42338); assay: PI3-Kinase Promega ADP-Glo Max assay; type: biochemical
Method: as §1, §2

PI3K δ = PI3K δ (Homo sapiens (Human), UniProt O00329); assay: PI3-Kinase Promega ADP-Glo Max assay; type: biochemical
Method: as §1, §2

PI3K γ = PI3K γ (Homo sapiens (Human), UniProt P48736); assay: PI3-Kinase Promega ADP-Glo Max assay; type: biochemical
PI3K-δ in RAJI cells = PI3K-δ in RAJI cells (Homo sapiens (Human), UniProt O00329); assay: RAJI p110 δ assay (PI3K-δ selective cellular assay, phospho-AKT); type: cell-based; settings: phospho-AKT; read-out: RAJI p110 δ assay IC50
[1] = molecular target: PI3K-γ in RAW264.7 macrophages (Mus musculus (Mouse), UniProt Q9JHG7); assay: Raw264.7 p110 γ assay (PI3K-γ selective cellular assay, C5a-stimulated phospho-AKT); type: cell-based; settings: for IC50: phospho-AKT, read-out: Raw264.7 p110 γ assay IC50
Chain of PI3K-γ in RAW264.7 macrophages (Q9JHG7 whole entry): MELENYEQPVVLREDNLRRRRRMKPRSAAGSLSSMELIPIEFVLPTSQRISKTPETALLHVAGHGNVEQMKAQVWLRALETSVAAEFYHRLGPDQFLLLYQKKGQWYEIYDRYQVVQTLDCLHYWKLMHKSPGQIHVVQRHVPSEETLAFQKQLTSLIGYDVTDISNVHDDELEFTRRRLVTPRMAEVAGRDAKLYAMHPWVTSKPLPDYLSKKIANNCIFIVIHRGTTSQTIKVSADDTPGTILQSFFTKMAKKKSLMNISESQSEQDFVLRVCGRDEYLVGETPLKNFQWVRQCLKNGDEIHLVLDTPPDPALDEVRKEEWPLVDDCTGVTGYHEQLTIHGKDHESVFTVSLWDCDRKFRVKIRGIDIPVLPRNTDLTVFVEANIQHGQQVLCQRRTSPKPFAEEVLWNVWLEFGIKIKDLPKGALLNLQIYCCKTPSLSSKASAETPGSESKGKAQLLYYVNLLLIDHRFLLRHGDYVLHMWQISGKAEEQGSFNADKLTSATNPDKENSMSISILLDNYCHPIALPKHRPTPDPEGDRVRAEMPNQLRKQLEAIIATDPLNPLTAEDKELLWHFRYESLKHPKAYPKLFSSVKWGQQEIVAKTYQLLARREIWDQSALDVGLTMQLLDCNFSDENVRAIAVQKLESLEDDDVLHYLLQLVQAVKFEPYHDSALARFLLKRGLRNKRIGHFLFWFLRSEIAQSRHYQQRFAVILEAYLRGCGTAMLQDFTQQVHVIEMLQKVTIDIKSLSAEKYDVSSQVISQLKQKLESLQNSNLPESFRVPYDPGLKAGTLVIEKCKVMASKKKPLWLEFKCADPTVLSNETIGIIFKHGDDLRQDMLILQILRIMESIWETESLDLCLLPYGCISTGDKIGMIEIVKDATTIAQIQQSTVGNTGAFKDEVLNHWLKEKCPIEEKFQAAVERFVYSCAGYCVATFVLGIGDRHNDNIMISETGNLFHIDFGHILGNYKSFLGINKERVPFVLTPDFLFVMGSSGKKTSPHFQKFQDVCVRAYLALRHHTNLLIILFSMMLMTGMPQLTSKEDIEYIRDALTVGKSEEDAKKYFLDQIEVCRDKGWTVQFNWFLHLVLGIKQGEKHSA
From the text: Briefly, serum-starved RAW264.7 cells are stimulated with a known GPCR agonist C5a. […] Cells can be treated with test compounds prior to, simultaneously with, or subsequent to the stimulation by C5a. RAW 264.7 cells respond to the complement component fragment C5a through activation of the C5a receptor, and the C5a receptor activates macrophages and induces cell migration.

Chain of PI3K β (P42338 whole entry): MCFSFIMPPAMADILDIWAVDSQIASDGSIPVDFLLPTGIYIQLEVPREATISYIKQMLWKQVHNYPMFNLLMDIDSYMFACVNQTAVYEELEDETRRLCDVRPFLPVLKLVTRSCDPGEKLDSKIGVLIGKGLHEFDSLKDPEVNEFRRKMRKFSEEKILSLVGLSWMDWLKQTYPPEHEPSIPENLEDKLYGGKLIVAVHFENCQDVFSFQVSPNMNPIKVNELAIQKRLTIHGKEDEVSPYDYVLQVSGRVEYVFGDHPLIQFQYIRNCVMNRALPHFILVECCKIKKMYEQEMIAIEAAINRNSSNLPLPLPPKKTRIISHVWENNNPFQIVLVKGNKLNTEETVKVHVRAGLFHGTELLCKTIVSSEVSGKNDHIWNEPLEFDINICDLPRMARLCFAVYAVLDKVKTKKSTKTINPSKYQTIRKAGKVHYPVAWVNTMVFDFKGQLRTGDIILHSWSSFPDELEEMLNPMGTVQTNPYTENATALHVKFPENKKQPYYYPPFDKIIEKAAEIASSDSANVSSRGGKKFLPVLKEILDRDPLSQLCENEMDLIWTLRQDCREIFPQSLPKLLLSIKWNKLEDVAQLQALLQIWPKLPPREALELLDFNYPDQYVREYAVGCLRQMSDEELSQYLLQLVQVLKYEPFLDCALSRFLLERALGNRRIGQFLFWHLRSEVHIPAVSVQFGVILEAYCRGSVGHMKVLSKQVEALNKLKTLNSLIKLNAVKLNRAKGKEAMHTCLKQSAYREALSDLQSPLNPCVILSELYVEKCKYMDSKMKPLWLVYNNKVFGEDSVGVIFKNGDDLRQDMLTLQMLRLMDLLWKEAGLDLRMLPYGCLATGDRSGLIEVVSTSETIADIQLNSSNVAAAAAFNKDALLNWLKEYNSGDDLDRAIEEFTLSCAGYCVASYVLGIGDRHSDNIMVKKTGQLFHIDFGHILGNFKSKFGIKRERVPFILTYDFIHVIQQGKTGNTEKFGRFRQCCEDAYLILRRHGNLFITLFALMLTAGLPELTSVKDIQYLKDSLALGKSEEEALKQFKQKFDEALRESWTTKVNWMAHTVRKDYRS
Chain of PI3K β (P27986 whole entry partner): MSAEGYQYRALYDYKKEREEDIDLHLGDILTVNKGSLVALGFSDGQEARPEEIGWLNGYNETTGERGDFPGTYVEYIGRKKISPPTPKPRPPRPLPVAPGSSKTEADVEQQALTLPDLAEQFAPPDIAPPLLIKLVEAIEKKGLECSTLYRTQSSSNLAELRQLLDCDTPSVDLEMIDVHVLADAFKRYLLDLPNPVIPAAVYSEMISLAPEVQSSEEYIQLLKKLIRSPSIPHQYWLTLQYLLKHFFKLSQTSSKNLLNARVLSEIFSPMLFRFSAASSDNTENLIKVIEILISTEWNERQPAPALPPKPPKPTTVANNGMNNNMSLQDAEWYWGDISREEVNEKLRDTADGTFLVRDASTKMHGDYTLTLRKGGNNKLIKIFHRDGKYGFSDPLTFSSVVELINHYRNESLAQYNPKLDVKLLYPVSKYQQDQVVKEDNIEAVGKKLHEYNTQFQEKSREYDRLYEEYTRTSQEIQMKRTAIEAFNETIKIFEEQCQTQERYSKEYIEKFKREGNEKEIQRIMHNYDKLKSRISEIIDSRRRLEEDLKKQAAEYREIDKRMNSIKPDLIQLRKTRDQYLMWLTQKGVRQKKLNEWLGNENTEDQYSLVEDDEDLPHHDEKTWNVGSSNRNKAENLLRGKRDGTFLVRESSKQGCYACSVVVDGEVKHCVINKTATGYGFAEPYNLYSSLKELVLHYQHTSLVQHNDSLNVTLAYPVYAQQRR
Chain of PI3K γ (P48736 whole entry): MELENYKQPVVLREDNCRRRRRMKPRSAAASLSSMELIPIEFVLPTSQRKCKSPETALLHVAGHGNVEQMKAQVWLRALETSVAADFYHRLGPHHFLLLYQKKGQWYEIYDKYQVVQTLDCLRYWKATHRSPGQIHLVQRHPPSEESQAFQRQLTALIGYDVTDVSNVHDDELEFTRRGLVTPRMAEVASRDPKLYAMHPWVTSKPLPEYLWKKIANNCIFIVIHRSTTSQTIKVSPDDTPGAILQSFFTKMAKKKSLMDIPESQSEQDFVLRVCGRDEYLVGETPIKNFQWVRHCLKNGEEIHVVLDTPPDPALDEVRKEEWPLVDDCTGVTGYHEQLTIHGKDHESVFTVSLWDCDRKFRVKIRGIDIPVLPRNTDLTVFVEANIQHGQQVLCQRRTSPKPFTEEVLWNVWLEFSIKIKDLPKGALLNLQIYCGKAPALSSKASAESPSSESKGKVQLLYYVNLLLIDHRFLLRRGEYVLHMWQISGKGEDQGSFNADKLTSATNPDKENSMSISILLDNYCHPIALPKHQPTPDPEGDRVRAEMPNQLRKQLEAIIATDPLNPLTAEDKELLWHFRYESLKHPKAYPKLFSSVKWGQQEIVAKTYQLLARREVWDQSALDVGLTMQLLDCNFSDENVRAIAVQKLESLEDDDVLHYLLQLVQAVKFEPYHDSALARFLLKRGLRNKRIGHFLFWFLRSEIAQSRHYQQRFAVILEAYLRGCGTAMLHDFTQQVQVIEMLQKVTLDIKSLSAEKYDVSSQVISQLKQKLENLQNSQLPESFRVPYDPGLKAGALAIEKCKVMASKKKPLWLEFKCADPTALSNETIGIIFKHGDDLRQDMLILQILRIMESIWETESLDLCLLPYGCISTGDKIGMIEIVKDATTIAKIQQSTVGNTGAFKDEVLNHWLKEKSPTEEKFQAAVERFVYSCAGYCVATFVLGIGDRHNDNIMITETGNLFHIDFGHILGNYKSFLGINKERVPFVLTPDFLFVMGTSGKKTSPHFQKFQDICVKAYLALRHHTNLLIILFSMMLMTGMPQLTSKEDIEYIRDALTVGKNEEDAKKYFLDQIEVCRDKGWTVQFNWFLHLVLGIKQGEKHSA
Chain of PI3K δ (O00329 whole entry): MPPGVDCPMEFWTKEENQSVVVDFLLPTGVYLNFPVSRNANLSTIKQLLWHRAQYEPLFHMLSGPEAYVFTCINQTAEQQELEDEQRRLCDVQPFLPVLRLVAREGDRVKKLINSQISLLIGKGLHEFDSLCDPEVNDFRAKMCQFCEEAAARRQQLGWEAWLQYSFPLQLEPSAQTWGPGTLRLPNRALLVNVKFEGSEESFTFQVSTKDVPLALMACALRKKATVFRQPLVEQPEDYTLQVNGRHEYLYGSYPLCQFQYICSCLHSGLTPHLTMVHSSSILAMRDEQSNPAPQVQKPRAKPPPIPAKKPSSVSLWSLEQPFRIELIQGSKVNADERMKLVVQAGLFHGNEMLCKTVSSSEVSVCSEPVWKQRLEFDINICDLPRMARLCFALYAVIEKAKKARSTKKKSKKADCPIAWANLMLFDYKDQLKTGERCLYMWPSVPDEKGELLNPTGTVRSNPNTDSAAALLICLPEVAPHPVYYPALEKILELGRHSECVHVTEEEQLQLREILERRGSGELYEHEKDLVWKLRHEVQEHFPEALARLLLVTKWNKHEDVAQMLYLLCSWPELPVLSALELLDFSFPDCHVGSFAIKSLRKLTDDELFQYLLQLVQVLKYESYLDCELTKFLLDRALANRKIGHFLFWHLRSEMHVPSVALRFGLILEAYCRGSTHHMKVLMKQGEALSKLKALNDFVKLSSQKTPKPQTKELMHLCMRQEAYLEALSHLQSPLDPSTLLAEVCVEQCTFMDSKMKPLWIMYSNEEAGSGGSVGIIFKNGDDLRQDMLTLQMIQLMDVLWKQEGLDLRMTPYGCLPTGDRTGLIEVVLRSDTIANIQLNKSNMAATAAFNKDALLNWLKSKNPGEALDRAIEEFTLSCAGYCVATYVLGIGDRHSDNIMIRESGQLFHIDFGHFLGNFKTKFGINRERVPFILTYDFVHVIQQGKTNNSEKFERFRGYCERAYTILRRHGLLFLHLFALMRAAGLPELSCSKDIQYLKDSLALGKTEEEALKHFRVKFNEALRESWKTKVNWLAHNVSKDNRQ
Chain of PI3K δ (P27986 whole entry partner): as the sequence (P27986 whole entry partner) above

SMILES | IC50 (PI3K α) [nM] | IC50 (PI3K β) [nM] | IC50 (PI3K δ) [nM] | IC50 (PI3K γ) [nM] | PI3K δ/PI3K γ IC50 (selectivity) (PI3K γ) | IC50 (PI3K-δ in RAJI cells) [nM] | RAJIδ/Raw264.7 γ IC50 (selectivity) [1] | IC50 [1] [nM]
C[C@H](NC(=O)c1c(N)nn2cccnc12)c1cc2cccc(C#CC3CC3)c2c(=O)n1C1CC1 [Compound 24] | 1000 to 5000 | 1000 to 5000 | 1000 to 5000 | 1000 to 5000 | W (W = >1 to <10) | 100 to 500 | W (W = >1 to <10) | 1 to 50
C[C@H](NC(=O)c1c(N)nn2cccnc12)c1cc2cccc(C#Cc3ccncc3)c2c(=O)n1-c1ccccc1 [Compound 26] | 5000 to 10000 | 5000 to 10000 | 5000 to 10000 | 100 to 500 | X (X = 10 to <50) | 100 to 500 | Y (Y = 50 to <850) | 1 to 50
C[C@H](NC(=O)c1c(N)nn2cccnc12)c1cc2cccc(C#CC3CCOCC3)c2c(=O)n1-c1ccccc1 [Compound 27] | 5000 to 10000 | 5000 to 10000 | 5000 to 10000 | 100 to 500 | X (X = 10 to <50) | 1 to 100 | Y (Y = 50 to <850) | 1 to 50
COc1cc(C#Cc2cccc3cc([C@H](C)NC(=O)c4c(N)nn5cccnc45)n(-c4ccccc4)c(=O)c23)ccn1 [Compound 28] | 5000 to 10000 | 5000 to 10000 | 5000 to 10000 | 1000 to 5000 | W (W = >1 to <10) | 100 to 500 | X (X = 10 to <50) | 1 to 50
C[C@H](NC(=O)c1nccnc1N)c1cc2cccc(C#Cc3cnn(C)c3)c2c(=O)n1-c1ccccc1 [Compound 29] | 5000 to 10000 | 1000 to 5000 | 1000 to 5000 | 100 to 500 | X (X = 10 to <50) | 1 to 100 | W (W = >1 to <10) | 1 to 50
C[C@H](NC(=O)c1c(N)nn2cccnc12)c1cc2cccc(C#Cc3ccn(C)n3)c2c(=O)n1-c1ccccc1 [Compound 30] | 5000 to 10000 | 5000 to 10000 | 5000 to 10000 | 100 to 500 | Y (Y = 50 to <850) | 100 to 500 | Y (Y = 50 to <850) | 1 to 50
C[C@H](NC(=O)c1c(N)nn2cccnc12)c1cc2cccc(C#Cc3cc[nH]c(=O)c3)c2c(=O)n1-c1ccccc1 [Compound 31] | 5000 to 10000 | 5000 to 10000 | 5000 to 10000 | 100 to 500 | X (X = 10 to <50) | 100 to 500 | W (W = >1 to <10) | 50 to 100
C[C@H](NC(=O)c1c(N)nn2cccnc12)c1cc2cccc(C#Cc3ccccn3)c2c(=O)n1-c1ccccc1 [Compound 32] | 5000 to 10000 | 5000 to 10000 | 5000 to 10000 | 100 to 500 | Y (Y = 50 to <850) | 500 to 1000 | Y (Y = 50 to <850) | 1 to 50
CCOC(C#Cc1cccc2cc([C@H](C)NC(=O)c3c(N)nn4cccnc34)n(-c3ccccc3)c(=O)c12)OCC [Compound 34] | 5000 to 10000 | 5000 to 10000 | 5000 to 10000 | 500 to 1000 | X (X = 10 to <50) | 500 to 1000 | X (X = 10 to <50) | 50 to 100
Cc1c(C#Cc2cccc3cc([C@H](C)NC(=O)c4c(N)nn5cccnc45)n(-c4ccccc4)c(=O)c23)cnn1C [Compound 35] | 5000 to 10000 | 5000 to 10000 | 5000 to 10000 | 100 to 500 | Y (Y = 50 to <850) | 500 to 1000 | Y (Y = 50 to <850) | 1 to 50
C[C@H](NC(=O)c1c(N)nn2cccnc12)c1cc2cccc(C#CC=O)c2c(=O)n1-c1ccccc1 [Compound 36] | 1000 to 5000 | 1 to 500 | 1000 to 5000 | 1 to 100 | X (key: V = 0.1 to 1; W = >1 to <10; X = 10 to <50; Y = 50 to <850) | 100 to 500 | W (key: V = 0.1 to 1; W = >1 to <10; X = 10 to <50; Y = 50 to <850) | 100 to 10000
Cc1nn(C)c(C)c1C#Cc1cccc2cc([C@H](C)NC(=O)c3c(N)nn4cccnc34)n(-c3ccccc3)c(=O)c12 [Compound 37] | 5000 to 10000 | 5000 to 10000 | 5000 to 10000 | 1000 to 5000 | W (W = >1 to <10) | 1000 to 10000 | Y (Y = 50 to <850) | 1 to 50
Cc1ncc(C#Cc2cccc3cc([C@H](C)NC(=O)c4c(N)nn5cccnc45)n(-c4ccccc4)c(=O)c23)n1C [Compound 38] | 5000 to 10000 | 5000 to 10000 | 5000 to 10000 | 1 to 100 | Y (Y = 50 to <850) | 500 to 1000 | Y (Y = 50 to <850) | 1 to 50
C[C@H](NC(=O)c1cnn2cccnc12)c1cc2cccc(C#Cc3cnn(C)c3)c2c(=O)n1-c1ccccc1 [Compound 39] | 5000 to 10000 | 5000 to 10000 | 5000 to 10000 | 100 to 500 | X (X = 10 to <50) | 1000 to 10000 | X (X = 10 to <50) | 50 to 100
Cc1nc(C#Cc2cccc3cc([C@H](C)NC(=O)c4c(N)nn5cccnc45)n(-c4ccccc4)c(=O)c23)cs1 [Compound 40] | 1000 to 5000 | 5000 to 10000 | 5000 to 10000 | 1 to 100 | Y (Y = 50 to <850) | 100 to 500 | Y (Y = 50 to <850) | 1 to 50
C[C@H](NC(=O)c1c(N)nn2cccnc12)c1cc2cccc(C#Cc3cncs3)c2c(=O)n1-c1ccccc1 [Compound 41] | 5000 to 10000 | 5000 to 10000 | 5000 to 10000 | 100 to 500 | Y (Y = 50 to <850) | 100 to 500 | Y (Y = 50 to <850) | 1 to 50
C[C@H](NC(=O)c1c(N)nn2cccnc12)c1cc2cccc(C#Cc3cnc[nH]3)c2c(=O)n1-c1ccccc1 [Compound 43] | 5000 to 10000 | 5000 to 10000 | 5000 to 10000 | 100 to 500 | Y (Y = 50 to <850) | 100 to 500 | X (X = 10 to <50) | 1 to 50
C#Cc1cccc2nc([C@H](C)NC(=O)c3c(N)nn4cccnc34)n(-c3ccc(F)c(F)c3)c(=O)c12 [Compound 45] | 5000 to 10000 | 5000 to 10000 | 5000 to 10000 | 100 to 500 | Y (Y = 50 to <850) | 100 to 500 | W (W = >1 to <10) | 1 to 50
C#Cc1cccc2nc([C@H](C)NC(=O)c3c(N)nn4cccnc34)n(-c3ccccc3)c(=O)c12 [Compound 46] | 5000 to 10000 | 1000 to 5000 | 1000 to 5000 | 1 to 100 | Y (Y = 50 to <850) | 1 to 100 | W (W = >1 to <10) | 1 to 50

From US9775844B2, “Heterocyclic compounds and uses thereof” (Infinity Pharmaceuticals, Inc., priority 2014, dated 2017)
